Source: patent US8178539B2, “Substituted 3,4,6,7-tetrahydro-5H-1,2a,4a,8-tetraazacyclopenta[cd]phenalenes and methods” (3M Innovative Properties Company, priority 2006, dated 2012)
Counter-ions that a name gives are not always drawn.

melting point [°C] | Structure (SMILES)
222 to 227 | CCOCc1nc2c(N)nc3c4c2n1CC(C)(C)N4CCC3 (as salt: hydrochloride) [Example 6, 2-(Ethoxymethyl)-4,4-dimethyl-3,4,6,7-tetrahydro-5H-1,2a,4a,8-tetraazacyclopenta[cd]phenalen-9-amine hydrochloride]
172 to 173 | CCOCc1nc2c(N)nc3c4c2n1CCN4CCC3 [Example 1, 2-(Ethoxymethyl)-3,4,6,7-tetrahydro-5H-1,2a,4a,8-tetraazacyclopenta[cd]phenalen-9-amine]
171 to 172 | COCCc1nc2c(N)nc3c4c2n1CCN4CCC3 [Example 2, 2-(2-Methoxyethyl)-3,4,6,7-tetrahydro-5H-1,2a,4a,8-tetraazacyclopenta[cd]phenalen-9-amine]
225 to 230 | CCCc1nc2c(N)nc3c4c2n1CCN4CCC3 [Example 3, 2-Propyl-3,4,6,7-tetrahydro-5H-1,2a,4a,8-tetraazacyclopenta[cd]phenalen-9-amine]
164.5 to 166.1 | CCOCc1nc2c(N)nc3c4c2n1[C@H](C)CN4CCC3 [Example 4, (3R)-2-(Ethoxymethyl)-3-methyl-3,4,6,7-tetrahydro-5H-1,2a,4a,8-tetraazacyclopenta[cd]phenalen-9-amine]
164.1 to 165.6 | CCOCc1nc2c(N)nc3c4c2n1[C@@H](C)CN4CCC3 [Example 5, (3S)-2-(Ethoxymethyl)-3-methyl-3,4,6,7-tetrahydro-5H-1,2a,4a,8-tetraazacyclopenta[cd]phenalen-9-amine]
